Test results: the supplement of paper PMC10307832

Tests used:
Assay in all cases: relative viability (nuclei count vs DMSO), 5 days (fraction); higher = more cells survive
[1] = compound: CC1(C)CCC(CN2CCN(c3ccc(C(=O)NS(=O)(=O)c4ccc(NCC5CCOCC5)c([N+](=O)[O-])c4)c(Oc4cnc5[nH]ccc5c4)c3)CC2)=C(c2ccc(Cl)cc2)C1 [Venetoclax] + N=C(N)NC(=N)NCCc1ccccc1 [Phenformin] (partner 250 µM)
In short: (§1)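 Each reported value is a median over duplicate plates. It expresses relative viability: treated-well nuclei count divided by vehicle-well nuclei count. Lung cancer cell lines in 1536-well plates were dosed by pin tool a day after seeding, alone with one drug or with a fixed anchor-drug dose plus five library-drug doses (not always all listed) in √10 steps, and nuclei were counted after 5 days.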

[2] = compound: CC1(C)CCC(CN2CCN(c3ccc(C(=O)NS(=O)(=O)c4ccc(NCC5CCOCC5)c([N+](=O)[O-])c4)c(Oc4cnc5[nH]ccc5c4)c3)CC2)=C(c2ccc(Cl)cc2)C1 [Venetoclax] + O=C(CCCCCCC(=O)Nc1ccccc1)NO [Vorinostat] (partner 1 µM)
In short: as §1

[3] = compound: Cn1cnc2c(F)c(Nc3ccc(Br)cc3Cl)c(C(=O)NOCCO)cc21 [Selumetinib] + CS(=O)(=O)CCNCc1ccc(-c2ccc3ncnc(Nc4ccc(OCc5cccc(F)c5)c(Cl)c4)c3c2)o1 [Lapatinib] (partner 2 µM)
In short: as §1

[4] = compound: Cn1cnc2c(F)c(Nc3ccc(Br)cc3Cl)c(C(=O)NOCCO)cc21 [Selumetinib] + O=C(CCCCCCC(=O)Nc1ccccc1)NO [Vorinostat] (partner 1 µM)
In short: as §1

Cell Line	relative viability ([1]; first compound 0.01 µM)	relative viability ([1]; first compound 0.03162 µM)	relative viability ([1]; first compound 0.1 µM)	relative viability ([1]; first compound 0.3162 µM)	relative viability ([1]; first compound 1 µM)	relative viability ([2]; first compound 0.01 µM)	relative viability ([2]; first compound 0.03162 µM)	relative viability ([2]; first compound 0.1 µM)	relative viability ([2]; first compound 0.3162 µM)	relative viability ([2]; first compound 1 µM)	relative viability ([3]; first compound 0.02 µM)	relative viability ([3]; first compound 0.06325 µM)	relative viability ([3]; first compound 0.2 µM)	relative viability ([3]; first compound 0.6325 µM)	relative viability ([4]; first compound 0.02 µM)	relative viability ([4]; first compound 0.06325 µM)	relative viability ([4]; first compound 0.2 µM)	relative viability ([4]; first compound 0.6325 µM)
NCI-H650	0.439	0.487	0.438	0.488	0.435	0.42	0.413	0.471	0.462	0.391	1.12	1.24	1.34	1.37	0.552	0.778	0.72	0.805
PC-14	0.562	0.747	0.717	0.709	0.499	0.642	0.788	0.822	0.692	0.641	0.285	0.252	0.234	0.207	0.835	0.667	0.688	0.504
HARA	0.415	0.406	0.464	0.467	0.447	0.568	0.605	0.554	0.512	0.4	0.657	0.506	0.606	0.486	0.428	–	0.365	0.249
SK-MES-1	0.616	0.685	0.69	0.601	0.511	1.01	1.1	1.06	1.08	0.966	0.432	0.401	0.361	0.371	0.938	0.85	0.853	0.65
NCI-H1650	0.515	0.479	0.541	0.534	0.377	0.618	0.606	0.567	0.553	0.527	0.704	0.639	0.704	0.721	0.569	0.526	0.408	0.587
HOP-62	0.622	0.655	0.67	0.649	0.64	0.578	0.572	0.552	0.667	0.568	1.08	0.86	0.732	0.636	0.579	0.556	0.555	0.349
LK-2	0.479	0.605	0.491	0.617	0.357	0.214	0.38	0.304	0.278	0.248	1.16	0.852	0.848	0.924	0.296	0.288	0.296	0.711
HCC-44	0.362	0.153	0.165	0.161	0.182	1.05	1.14	1.08	1.1	1	0.977	1	0.891	0.966	1.1	1.05	1.06	1.07
BEN	0.26	0.306	0.302	0.273	0.264	0.599	0.603	0.494	0.556	0.523	0.69	0.829	0.637	0.648	0.527	0.558	0.59	0.632
NCI-H2405	0.343	0.357	0.348	0.404	0.379	0.944	1.27	1.03	1.07	0.889	1.05	0.852	0.644	0.591	1.18	1.04	0.818	0.987
NCI-H1395	0.45	0.444	0.405	0.473	0.428	0.7	0.838	0.673	0.907	0.896	0.982	0.997	0.93	1.05	0.761	0.613	0.653	0.775
201T	0.451	0.433	0.456	0.466	0.411	0.858	1.02	0.917	0.975	0.947	1.01	0.963	0.958	0.949	0.929	0.876	0.877	0.814
NCI-H2170	0.319	0.415	0.399	0.368	0.34	0.685	0.763	0.682	0.804	0.742	0.265	0.267	0.274	0.247	0.905	0.74	0.705	0.786
NCI-H596	0.818	0.665	0.649	0.809	0.659	0.649	0.626	0.587	0.568	0.714	0.961	1.03	0.921	0.68	0.368	0.557	0.578	0.606
NCI-H838	0.63	0.591	0.448	0.636	0.507	0.699	0.72	0.709	0.769	0.719	0.838	0.732	0.861	0.671	0.644	0.54	0.654	0.636
HCC-366	0.553	0.613	0.578	0.574	0.545	0.311	0.395	0.273	0.346	0.312	1.06	0.914	0.872	0.612	0.335	0.41	0.344	0.445
NCI-H1651	0.373	0.327	0.287	0.329	0.342	0.566	0.585	0.577	0.497	0.599	0.691	0.768	0.763	0.752	0.554	0.552	0.564	0.572
ABC-1	0.234	0.269	0.236	0.241	0.228	1.04	1.24	1.13	1.32	0.939	1.22	1.27	0.967	1.03	1.29	0.922	0.982	1.04
